These results are taken from PMC6934184, “Selective DNA-PKcs inhibition extends the therapeutic index of localized radiotherapy and chemotherapy” (The Journal of Clinical Investigation, 2019).

The structures appear in SMILES notation.

This experiment deals with T1, WEE1 (Homo sapiens, UniProt P30291).
T1 construct: purchased Thermo Fisher Scientific (Life Technologies) SelectScreen
The experiment is described as follows: SelectScreen LanthaScreen. The note with it: read-out: % displacement. The format is binding. The procedure, abridged: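 SelectScreen broad panel; activity (Z'LYTE, Adapta) plus binding formats. ATP: Km app for CSF1R Z'LYTE; 10 for CAMK1 Adapta. Readout = % per kinase.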
(Time-resolved FRET reads energy transfer from a long-lived donor to a nearby acceptor.)

T1 sequence (P30291 whole entry): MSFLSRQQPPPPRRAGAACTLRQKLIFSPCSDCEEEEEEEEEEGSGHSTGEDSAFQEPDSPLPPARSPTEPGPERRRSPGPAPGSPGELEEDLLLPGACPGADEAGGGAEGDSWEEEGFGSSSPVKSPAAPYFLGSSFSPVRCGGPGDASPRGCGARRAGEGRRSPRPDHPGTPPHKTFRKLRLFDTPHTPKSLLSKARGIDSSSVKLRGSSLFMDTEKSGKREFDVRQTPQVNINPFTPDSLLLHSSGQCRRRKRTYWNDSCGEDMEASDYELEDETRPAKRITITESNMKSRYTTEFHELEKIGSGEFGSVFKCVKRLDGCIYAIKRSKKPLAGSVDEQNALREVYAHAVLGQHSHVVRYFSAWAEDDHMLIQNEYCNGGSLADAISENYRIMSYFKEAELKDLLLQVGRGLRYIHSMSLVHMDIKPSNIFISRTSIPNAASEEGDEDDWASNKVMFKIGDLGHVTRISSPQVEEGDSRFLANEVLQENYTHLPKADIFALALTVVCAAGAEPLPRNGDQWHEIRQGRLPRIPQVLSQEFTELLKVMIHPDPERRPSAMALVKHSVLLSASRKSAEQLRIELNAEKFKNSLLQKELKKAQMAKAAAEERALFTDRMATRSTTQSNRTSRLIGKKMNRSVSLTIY

With `CN(C(=O)CN1CCOCC1)c1ccc2sc3c(-c4cccc5c(=O)cc(N6CC7CCC(C6)O7)oc45)cccc3c2c1` [NU5455], the inhibition at 1 µM came to 18.2%.
